Measured values published in a compilation of properties of binary mixtures (doi:10.1016/j.molliq.2022.119221).

Experiment: xn = mol fraction of the nth substance listed
Conditions: 100 kPa

OCCO + CCCC[n+]1ccn(C)c1.O=S(=O)([N-]S(=O)(=O)C(F)(F)F)C(F)(F)F
viscosity [mPa·s]
Conditions | 293.15 K | 298.15 K | 303.15 K | 308.15 K | 313.15 K | 318.15 K | 323.15 K | 328.15 K | 333.15 K | 338.15 K
x2 = 0.1 | 30.7 | 24.6 | 19.2 | 15.2 | 12.5 | 10.4 | 8.87 | 7.66 | 6.65 | 5.82
x2 = 0.2002 | – | – | 21.5 | 17.6 | 14.8 | 12.5 | 10.7 | 9.27 | – | 7.1
x2 = 0.2997 | 37.9 | 29.2 | 22.8 | – | – | – | – | 9.9 | 8.68 | 7.64
x2 = 0.4015 | – | 31.4 | 24.5 | 19.7 | 16.5 | 14.1 | 12.1 | – | 9.16 | 8.01
x2 = 0.4993 | 42 | 32.5 | 25.1 | 20.4 | 17.2 | 14.7 | 12.6 | 10.9 | 9.57 | 8.48
x2 = 0.6007 | 43 | 33.3 | 26.2 | 21.7 | 17.8 | 15 | 13 | – | 9.8 | 8.61
x2 = 0.7003 | 42 | 33.7 | 26.3 | – | 18.4 | – | 13.4 | 11.6 | 10.1 | 8.93
x2 = 0.7993 | 42.4 | 34.6 | 28.2 | 23.8 | 20.2 | 17.2 | – | 12.9 | – | –
x2 = 0.9 | 48.7 | 39.8 | 32.8 | 27.3 | 23.1 | 19.7 | – | – | 12.9 | 11.4
